Results from ChEMBL document CHEMBL1138248, “Synthesis and in vitro antiprotozoal activity of bisbenzofuran cations” (J Med Chem, 2007).

Assays:
[1] = tested on: Plasmodium falciparum; assay: microbe, parasite or virus in culture; details: K1
Description: Antimalarial activity against chloroquine-resistant Plasmodium falciparum K1

[2] = tested on: Leishmania donovani; assay: […] activity against Leishmania donovani (MHOM/SD/62/1S-CL2D) axenic amastigotes; format: functional, organism-based
[3] = tested on: L6; assay: Cytotoxicity against rat L6 cells
[4] = tested on: Trypanosoma brucei rhodesiense; assay: Antitrypanosomal activity against Trypanosoma brucei rhodesiense STIB900; format: functional, organism-based

Row | SMILES | IC50 [1] | IC50 [2] | IC50 [3] | IC50 [4]
1 | C[C@@H]1CC[C@H]2[C@@H](C)C(=O)O[C@@H]3O[C@@]4(C)CC[C@@H]1[C@]32OO4 [ARTEMISININ] | 0.006 µM |  |  | 
2 | N=C(N)c1ccc(OCCCCCOc2ccc(C(=N)N)cc2)cc1 [PENTAMIDINE] |  | 1.83 µM |  | 
3 | CCN(CC)CCCC(C)Nc1ccnc2cc(Cl)ccc12 (stereo not drawn) [CHLOROQUINE] |  |  | 117 µM | 
4 | COc1cc([C@@H]2c3cc4c(cc3[C@H](O)[C@H]3COC(=O)[C@H]23)OCO4)cc(OC)c1OC [PODOFILOX] |  |  | 0.01 µM | 
5 | N=C(N)c1ccc2oc(CCc3cc4cc(C(=N)N)ccc4o3)cc2c1 | 0.003 µM | 1.06 µM | 21.5 µM | 0.008 µM
